# Experimental data taken from ChEMBL document CHEMBL3045835, “Comparative study of conventional and microwave-assisted synthesis of some Schiff bases and their potential as antimicrobial agents” (2012).
# Assays:
# Type in all cases: functional
# Micrococcus luteus [1] = assay: Antibacterial activity against Micrococcus luteus MTCC 1538 after 24 hr by broth dilution method; conditions: MTCC 1538, 24 h
# Aspergillus niger [2] = assay: Antifungal activity against Aspergillus niger MTCC 2546 at 200 ug/ml after 18 hr by cup-plate method; conditions: MTCC 2546, 18 h, read-out: DIZ
# Bacillus pumilus [3] = assay: Antibacterial activity against Bacillus pumilus MTCC 1456 at 200 ug/ml after 18 hr by cup-plate method; conditions: MTCC 1456, 18 h, read-out: DIZ
# Aspergillus niger [4] = assay: Antifungal activity against Aspergillus niger MTCC 2546 after 24 hr by broth dilution method; conditions: MTCC 2546, 24 h
# Pseudomonas fluorescens [5] = assay: Antibacterial activity against Pseudomonas fluorescens MTCC 2421 at 1000 ug/ml after 18 hr by cup-plate method; conditions: MTCC 2421, 18 h, read-out: DIZ
# Aspergillus niger [6] = assay: Antifungal activity against Aspergillus niger MTCC 2546 at 500 ug/ml after 18 hr by cup-plate method; conditions: MTCC 2546, 18 h, read-out: DIZ
# Staphylococcus aureus [7] = assay: Antibacterial activity against Staphylococcus aureus MTCC 1430 at 1000 ug/ml after 18 hr by cup-plate method; conditions: MTCC 1430, 18 h, read-out: DIZ
# Bacillus subtilis [8] = assay: Antibacterial activity against Bacillus subtilis MTCC 441 at 100 ug/ml after 18 hr by cup plate method; conditions: MTCC 441, 18 h, read-out: DIZ
# Bacillus pumilus [9] = assay: Antibacterial activity against Bacillus pumilus MTCC 1456 after 24 hr by broth dilution method; conditions: MTCC 1456, 24 h
# Micrococcus luteus [10] = assay: Antibacterial activity against Micrococcus luteus MTCC 1538 at 1500 ug/ml after 18 hr by cup-plate method; conditions: MTCC 1538, 18 h, read-out: DIZ
# Pseudomonas fluorescens [11] = assay: Antibacterial activity against Pseudomonas fluorescens MTCC 2421 at 200 ug/ml after 18 hr by cup-plate method; conditions: MTCC 2421, 18 h, read-out: DIZ
# Staphylococcus aureus [12] = assay: Antibacterial activity against Staphylococcus aureus MTCC 1430 at 1500 ug/ml after 18 hr by cup-plate method; conditions: MTCC 1430, 18 h, read-out: DIZ
# Staphylococcus aureus [13] = assay: Antibacterial activity against Staphylococcus aureus MTCC 1430 at 100 ug/ml after 18 hr by cup-plate method; conditions: MTCC 1430, 18 h, read-out: DIZ
# Aspergillus niger [14] = assay: Antifungal activity against Aspergillus niger MTCC 2546 at 1000 ug/ml after 18 hr by cup-plate method; conditions: MTCC 2546, 18 h, read-out: DIZ
# Aspergillus niger [15] = assay: Antifungal activity against Aspergillus niger MTCC 2546 at 100 ug/ml after 18 hr by cup-plate method; conditions: MTCC 2546, 18 h, read-out: DIZ
# Pseudomonas aeruginosa [16] = assay: Antibacterial activity against Pseudomonas aeruginosa MTCC 424 at 500 ug/ml after 18 hr by cup-plate method; conditions: MTCC 424, 18 h, read-out: DIZ
# Micrococcus luteus [17] = assay: Antibacterial activity against Micrococcus luteus MTCC 1538 at 200 ug/ml after 18 hr by cup-plate method; conditions: MTCC 1538, 18 h, read-out: DIZ
# Penicillium chrysogenum [18] = assay: Antifungal activity against Penicillium chrysogenum MTCC 161 at 1000 ug/ml after 18 hr by cup-plate method; conditions: MTCC 161, 18 h, read-out: DIZ
# Bacillus subtilis [19] = assay: Antibacterial activity against Bacillus subtilis MTCC 441 at 1500 ug/ml after 18 hr by cup plate method; conditions: MTCC 441, 18 h, read-out: DIZ
# Pseudomonas aeruginosa [20] = assay: Antibacterial activity against Pseudomonas aeruginosa MTCC 424 at 100 ug/ml after 18 hr by cup-plate method; conditions: MTCC 424, 18 h, read-out: DIZ
# Escherichia coli [21] = assay: Antibacterial activity against Escherichia coli MTCC 1573 at 500 ug/ml after 18 hr by cup-plate method; conditions: MTCC 1573, 18 h, read-out: DIZ
# Penicillium chrysogenum [22] = assay: Antifungal activity against Penicillium chrysogenum MTCC 161 at 1500 ug/ml after 18 hr by cup-plate method; conditions: MTCC 161, 18 h, read-out: DIZ
# Penicillium chrysogenum [23] = assay: Antifungal activity against Penicillium chrysogenum MTCC 161 at 500 ug/ml after 18 hr by cup-plate method; conditions: MTCC 161, 18 h, read-out: DIZ
# Bacillus pumilus [24] = assay: Antibacterial activity against Bacillus pumilus MTCC 1456 at 1500 ug/ml after 18 hr by cup-plate method; conditions: MTCC 1456, 18 h, read-out: DIZ
# Penicillium chrysogenum [25] = assay: Antifungal activity against Penicillium chrysogenum MTCC 161 after 24 hr by broth dilution method; conditions: MTCC 161, 24 h
# Staphylococcus aureus [26] = assay: Antibacterial activity against Staphylococcus aureus MTCC 1430 at 200 ug/ml after 18 hr by cup-plate method; conditions: MTCC 1430, 18 h, read-out: DIZ
# Escherichia coli [27] = assay: Antibacterial activity against Escherichia coli MTCC 1573 at 100 ug/ml after 18 hr by cup-plate method; conditions: MTCC 1573, 18 h, read-out: DIZ
# Bacillus pumilus [28] = assay: Antibacterial activity against Bacillus pumilus MTCC 1456 at 100 ug/ml after 18 hr by cup-plate method; conditions: MTCC 1456, 18 h, read-out: DIZ
# Pseudomonas fluorescens [29] = assay: Antibacterial activity against Pseudomonas fluorescens MTCC 2421 at 100 ug/ml after 18 hr by cup-plate method; conditions: MTCC 2421, 18 h, read-out: DIZ
# Pseudomonas aeruginosa [30] = assay: Antibacterial activity against Pseudomonas aeruginosa MTCC 424 at 1000 ug/ml after 18 hr by cup-plate method; conditions: MTCC 424, 18 h, read-out: DIZ
# Bacillus subtilis [31] = assay: Antibacterial activity against Bacillus subtilis MTCC 441 at 200 ug/ml after 18 hr by cup plate method; conditions: MTCC 441, 18 h, read-out: DIZ
# Micrococcus luteus [32] = assay: Antibacterial activity against Micrococcus luteus MTCC 1538 at 1000 ug/ml after 18 hr by cup-plate method; conditions: MTCC 1538, 18 h, read-out: DIZ
# Bacillus subtilis [33] = assay: Antibacterial activity against Bacillus subtilis MTCC 441 after 24 hr by broth dilution method; conditions: MTCC 441, 24 h
# Escherichia coli [34] = assay: Antibacterial activity against Escherichia coli MTCC 1573 at 1500 ug/ml after 18 hr by cup-plate method; conditions: MTCC 1573, 18 h, read-out: DIZ
# Micrococcus luteus [35] = assay: Antibacterial activity against Micrococcus luteus MTCC 1538 at 100 ug/ml after 18 hr by cup-plate method; conditions: MTCC 1538, 18 h, read-out: DIZ
# Pseudomonas fluorescens [36] = assay: Antibacterial activity against Pseudomonas fluorescens MTCC 2421 after 24 hr by broth dilution method; conditions: MTCC 2421, 24 h
# Bacillus subtilis [37] = assay: Antibacterial activity against Bacillus subtilis MTCC 441 at 1000 ug/ml after 18 hr by cup plate method; conditions: MTCC 441, 18 h, read-out: DIZ
# Escherichia coli [38] = assay: Antibacterial activity against Escherichia coli MTCC 1573 at 200 ug/ml after 18 hr by cup-plate method; conditions: MTCC 1573, 18 h, read-out: DIZ
# Micrococcus luteus [39] = assay: Antibacterial activity against Micrococcus luteus MTCC 1538 at 500 ug/ml after 18 hr by cup-plate method; conditions: MTCC 1538, 18 h, read-out: DIZ
# Bacillus pumilus [40] = assay: Antibacterial activity against Bacillus pumilus MTCC 1456 at 500 ug/ml after 18 hr by cup-plate method; conditions: MTCC 1456, 18 h, read-out: DIZ
# Pseudomonas aeruginosa [41] = assay: Antibacterial activity against Pseudomonas aeruginosa MTCC 424 at 200 ug/ml after 18 hr by cup-plate method; conditions: MTCC 424, 18 h, read-out: DIZ
# Aspergillus niger [42] = assay: Antifungal activity against Aspergillus niger MTCC 2546 at 1500 ug/ml after 18 hr by cup-plate method; conditions: MTCC 2546, 18 h, read-out: DIZ
# Bacillus subtilis [43] = assay: Antibacterial activity against Bacillus subtilis MTCC 441 at 500 ug/ml after 18 hr by cup plate method; conditions: MTCC 441, 18 h, read-out: DIZ
# Escherichia coli [44] = assay: Antibacterial activity against Escherichia coli MTCC 1573 after 24 hr by broth dilution method; conditions: MTCC 1573, 24 h
# Escherichia coli [45] = assay: Antibacterial activity against Escherichia coli MTCC 1573 at 1000 ug/ml after 18 hr by cup-plate method; conditions: MTCC 1573, 18 h, read-out: DIZ
# Pseudomonas aeruginosa [46] = assay: Antibacterial activity against Pseudomonas aeruginosa MTCC 424 after 24 hr by broth dilution method; conditions: MTCC 424, 24 h
# Penicillium chrysogenum [47] = assay: Antifungal activity against Penicillium chrysogenum MTCC 161 at 100 ug/ml after 18 hr by cup-plate method; conditions: MTCC 161, 18 h, read-out: DIZ
# Pseudomonas fluorescens [48] = assay: Antibacterial activity against Pseudomonas fluorescens MTCC 2421 at 500 ug/ml after 18 hr by cup-plate method; conditions: MTCC 2421, 18 h, read-out: DIZ
# Staphylococcus aureus [49] = assay: Antibacterial activity against Staphylococcus aureus MTCC 1430 at 500 ug/ml after 18 hr by cup-plate method; conditions: MTCC 1430, 18 h, read-out: DIZ
# Staphylococcus aureus [50] = assay: Antibacterial activity against Staphylococcus aureus MTCC 1430 after 24 hr by broth dilution method; conditions: MTCC 1430, 24 h
# Pseudomonas fluorescens [51] = assay: Antibacterial activity against Pseudomonas fluorescens MTCC 2421 at 1500 ug/ml after 18 hr by cup-plate method; conditions: MTCC 2421, 18 h, read-out: DIZ
# Pseudomonas aeruginosa [52] = assay: Antibacterial activity against Pseudomonas aeruginosa MTCC 424 at 1500 ug/ml after 18 hr by cup-plate method; conditions: MTCC 424, 18 h, read-out: DIZ
# Penicillium chrysogenum [53] = assay: Antifungal activity against Penicillium chrysogenum MTCC 161 at 200 ug/ml after 18 hr by cup-plate method; conditions: MTCC 161, 18 h, read-out: DIZ
# Bacillus pumilus [54] = assay: Antibacterial activity against Bacillus pumilus MTCC 1456 at 1000 ug/ml after 18 hr by cup-plate method; conditions: MTCC 1456, 18 h, read-out: DIZ
compound,measurement,setting,value
C(=N\c1nc[nH]n1)/c1cccs1,MIC,Micrococcus luteus [1],200 µg/mL
same,zone of inhibition at 200 µg/mL,Aspergillus niger [2],13 mm
same,zone of inhibition at 200 µg/mL,Bacillus pumilus [3],15 mm
same,MIC,Aspergillus niger [4],300 µg/mL
same,zone of inhibition at 1000 µg/mL,Pseudomonas fluorescens [5],18 mm
same,zone of inhibition at 500 µg/mL,Aspergillus niger [6],15 mm
same,zone of inhibition at 1000 µg/mL,Staphylococcus aureus [7],18 mm
same,zone of inhibition at 100 µg/mL,Bacillus subtilis [8],10 mm
same,MIC,Bacillus pumilus [9],200 µg/mL
same,zone of inhibition at 1500 µg/mL,Micrococcus luteus [10],22 mm
same,zone of inhibition at 200 µg/mL,Pseudomonas fluorescens [11],13 mm
same,zone of inhibition at 1500 µg/mL,Staphylococcus aureus [12],19 mm
same,zone of inhibition at 100 µg/mL,Staphylococcus aureus [13],11 mm
same,zone of inhibition at 1000 µg/mL,Aspergillus niger [14],16 mm
same,zone of inhibition at 100 µg/mL,Aspergillus niger [15],11 mm
same,zone of inhibition at 500 µg/mL,Pseudomonas aeruginosa [16],15 mm
same,zone of inhibition at 200 µg/mL,Micrococcus luteus [17],16 mm
same,zone of inhibition at 1000 µg/mL,Penicillium chrysogenum [18],18 mm
same,zone of inhibition at 1500 µg/mL,Bacillus subtilis [19],22 mm
same,zone of inhibition at 100 µg/mL,Pseudomonas aeruginosa [20],12 mm
same,zone of inhibition at 500 µg/mL,Escherichia coli [21],18 mm
same,zone of inhibition at 1500 µg/mL,Penicillium chrysogenum [22],19 mm
same,zone of inhibition at 500 µg/mL,Penicillium chrysogenum [23],16 mm
same,zone of inhibition at 1500 µg/mL,Bacillus pumilus [24],18 mm
same,MIC,Penicillium chrysogenum [25],400 µg/mL
same,zone of inhibition at 200 µg/mL,Staphylococcus aureus [26],13 mm
same,zone of inhibition at 100 µg/mL,Escherichia coli [27],14 mm
same,zone of inhibition at 100 µg/mL,Bacillus pumilus [28],13 mm
same,zone of inhibition at 100 µg/mL,Pseudomonas fluorescens [29],11 mm
same,zone of inhibition at 1000 µg/mL,Pseudomonas aeruginosa [30],18 mm
same,zone of inhibition at 200 µg/mL,Bacillus subtilis [31],11 mm
same,zone of inhibition at 1000 µg/mL,Micrococcus luteus [32],20 mm
same,MIC,Bacillus subtilis [33],300 µg/mL
same,zone of inhibition at 1500 µg/mL,Escherichia coli [34],21 mm
same,zone of inhibition at 100 µg/mL,Micrococcus luteus [35],13 mm
same,MIC,Pseudomonas fluorescens [36],300 µg/mL
same,zone of inhibition at 1000 µg/mL,Bacillus subtilis [37],16 mm
same,zone of inhibition at 200 µg/mL,Escherichia coli [38],16 mm
same,zone of inhibition at 500 µg/mL,Micrococcus luteus [39],18 mm
same,zone of inhibition at 500 µg/mL,Bacillus pumilus [40],16 mm
same,zone of inhibition at 200 µg/mL,Pseudomonas aeruginosa [41],13 mm
same,zone of inhibition at 1500 µg/mL,Aspergillus niger [42],19 mm
same,zone of inhibition at 500 µg/mL,Bacillus subtilis [43],14 mm
same,MIC,Escherichia coli [44],200 µg/mL
same,zone of inhibition at 1000 µg/mL,Escherichia coli [45],20 mm
same,MIC,Pseudomonas aeruginosa [46],200 µg/mL
same,zone of inhibition at 100 µg/mL,Penicillium chrysogenum [47],13 mm
same,zone of inhibition at 500 µg/mL,Pseudomonas fluorescens [48],15 mm
same,zone of inhibition at 500 µg/mL,Staphylococcus aureus [49],16 mm
same,MIC,Staphylococcus aureus [50],300 µg/mL
same,zone of inhibition at 1500 µg/mL,Pseudomonas fluorescens [51],21 mm
same,zone of inhibition at 1500 µg/mL,Pseudomonas aeruginosa [52],20 mm
same,zone of inhibition at 200 µg/mL,Penicillium chrysogenum [53],15 mm
same,zone of inhibition at 1000 µg/mL,Bacillus pumilus [54],17 mm
